In patent US20130267532A1, “CYCLIC AMIDE COMPOUNDS AND THEIR USE IN THE TREATMENT OF DISEASE” (priority 2010, published 2013) one finds IC50 and Papp data, which are given here for five compounds.

Series [1] concerns the target T1, hERG potassium channel (Homo sapiens, UniProt Q12809).
T1 construct: expressed in transfected cells; host or cells: Chinese hamster ovary K1 (CHO) cells stably expressing hERG
The experiment in a line: hERG analysis Method 1 (QPatch HT automated patch clamp, CHO cells). The format is cell-based. The note with it: hERG-expressing CHO cells, tail current, room temperature (22±2° C.), 4 cumulative concentrations. How it is done:
hERG (Human Ether-a-go-go Related Gene) Analysis—Method 1
The hERG potassium current is measured in a hERG-stably-expressing Chinese hamster ovary K1 (CHO) cells. The experiments were performed using an automated planar patch-clamp system QPatch HT (Sophion Bioscience A/S). The application of pressure for forming gigaseals and whole-cell patch clamp configuration were established using the QPatch assay software. Patch-clamp experiments were performed in voltage-clamp mode and whole-cell currents were recorded from individual cells. The following stimulation protocol was applied to investigate the effects of compounds on hERG potassium channel.: The membrane potential was held at −80 mV and repetitively (every 15 s) depolarized to +20 mV for 5 s after the pulse to −50 mV for 20 ms served to define the baseline, followed by repolarizing step to −50 mV for 5 s to evaluate of the tail current amplitude. Experiments were conducted at room temperature (22±2° C.).
Effects of compounds were determined from cumulative applications of increasing 4 concentrations and calculated as percent of blocked current. The data points were fitted with Hill equation to calculate half-maximal inhibition concentrations.
The test solution includes:
Extracellular solution (mM): 2 mM of CaCl2, 1 mM of MgCl2, 10 mM of HEPES, 4 mM of KCl, 145 mM of NaCl, and 10 mM of glucose; and
Intracellular solution (mM): 5.4 mM of CaCl2, 1.8 mM of MgCl2, 10 mM of HEPES, 31 mM of KOH, 10 mM of EGTA, 120 mM of KCl, and 4 mM of ATP.
In general terms: Block of hERG is tested as a sign of cardiac risk.

Series [2] can be described thus: PAMPA analysis. It counts as in vitro ADME. The following applies: pH 7.4, GIT Lipid-0, incubation for 4 h, read-out: Pe pH 7.4. How it is done:
Donor: System Solution Concentrate (pION inc.) (25 mL) and DMSO (50 mL) (f.c. 5%) was diluted to 1 L with milliQ water, adjusted to pH5.0 or 7.4 with NaOH. Compound solution (5 μL, 10 mM solution in DMSO) was added to 1 mL of system solution prepared as above, and filtered.
Acceptor: Acceptor Sink Buffer(pION inc.)
Compound solution (200 μL) was added to Donor plate. GIT Lipid-0 (pION inc.) […] was added to Acceptor plate. Acceptor Sink Buffer (200 μL) was added to Acceptor plate. Donor and Acceptor plates were superposed. After incubation for 4 h under humidified conditions, the concentration of test compound in both solutions of Acceptor and Donor plates were measured by UV plate reader (190-500 nm). Permeation coefficient Pe(10^−6 cm/sec) was calculated by the equation shown below.
[formula] ra=(VD/VA)Pe^(A→D)/Pe^(D→A)=rVPe^(A→D)/Pe^(D→A)
rV=(VD/VA) • VD=volume of donor well • VA=volume of acceptor well • t=permeation time • τ^SS=steady state time • R=retention • CD and CA=concentration in donor and acceptor well The results are shown in Table 4.
For orientation: The PAMPA barrier holds no transporters, so it reflects passive diffusion.

T1 sequence (Q12809 whole entry): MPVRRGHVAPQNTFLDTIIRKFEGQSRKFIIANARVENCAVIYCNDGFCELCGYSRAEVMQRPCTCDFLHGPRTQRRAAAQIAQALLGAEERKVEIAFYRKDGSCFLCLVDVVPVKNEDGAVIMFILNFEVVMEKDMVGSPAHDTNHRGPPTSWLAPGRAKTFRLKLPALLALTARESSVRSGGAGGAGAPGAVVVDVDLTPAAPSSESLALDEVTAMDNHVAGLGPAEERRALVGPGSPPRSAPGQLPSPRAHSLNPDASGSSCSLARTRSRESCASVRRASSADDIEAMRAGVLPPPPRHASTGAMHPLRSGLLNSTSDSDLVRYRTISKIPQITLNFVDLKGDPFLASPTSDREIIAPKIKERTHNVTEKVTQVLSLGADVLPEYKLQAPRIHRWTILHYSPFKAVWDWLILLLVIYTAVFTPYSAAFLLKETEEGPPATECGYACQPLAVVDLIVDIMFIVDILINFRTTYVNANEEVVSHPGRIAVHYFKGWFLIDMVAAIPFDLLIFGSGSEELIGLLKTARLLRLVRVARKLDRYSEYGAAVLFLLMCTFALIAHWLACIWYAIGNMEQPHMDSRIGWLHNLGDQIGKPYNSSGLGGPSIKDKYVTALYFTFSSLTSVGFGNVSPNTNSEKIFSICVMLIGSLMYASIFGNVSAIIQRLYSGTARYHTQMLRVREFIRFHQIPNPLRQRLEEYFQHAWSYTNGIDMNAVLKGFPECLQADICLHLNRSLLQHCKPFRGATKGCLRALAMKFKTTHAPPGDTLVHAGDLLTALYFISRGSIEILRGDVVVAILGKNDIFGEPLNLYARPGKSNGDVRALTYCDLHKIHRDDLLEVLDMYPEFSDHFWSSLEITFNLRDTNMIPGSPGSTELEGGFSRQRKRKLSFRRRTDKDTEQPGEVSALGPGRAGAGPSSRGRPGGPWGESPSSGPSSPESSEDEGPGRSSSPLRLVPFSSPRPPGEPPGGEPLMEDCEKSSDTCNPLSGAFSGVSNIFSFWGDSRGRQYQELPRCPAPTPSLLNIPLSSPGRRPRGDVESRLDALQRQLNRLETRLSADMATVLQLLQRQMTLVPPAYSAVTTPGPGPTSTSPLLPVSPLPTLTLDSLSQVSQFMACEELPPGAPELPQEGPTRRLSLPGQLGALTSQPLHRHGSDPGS

One may read the IC50 as the concentration at which inhibition is half-maximal. Higher therefore signals weaker potency in that assay. `CCCCNc1nc(N)nc(C)c1Cc1ccc(N2CCN(C)CC2=O)cc1OC` [Example 1, 1-(4-{[2-Amino-4-(butylamino)-6-methylpyrimidin-5-yl]methyl}-3-methoxyphenyl)-4-methylpiperazin-2-one] showed an IC50 in series [1] of 2.9 µM. The Papp at 4 h, 50 µM in series [2] was determined as 35.6 ×10⁻⁶ cm/s.
As to `CCCCCNc1nc(N)nc(C)c1Cc1ccc(N2CCN(C)CC2=O)cc1OC` [Example 2, 1-(4-{[2-Amino-4-methyl-6-(pentylamino)pyrimidin-5-yl]methyl}-3-methoxyphenyl)-4-methylpiperazin-2-one], the IC50 in series [1] was 0.8 µM. Besides, the Papp at 4 h, 50 µM in series [2] was 44.2 ×10⁻⁶ cm/s.
For `CCC[C@@H](CCO)Nc1nc(N)nc(C)c1Cc1ccc(N2CCN(C)CC2=O)cc1OC` [Example 3, (S)-1-(4-{[2-Amino-4-(1-hydroxyhexan-3-ylamino)-6-methylpyrimidin-5-yl]methyl}-3-methoxyphenyl)-4-methylpiperazin-2-one] the same measures were > 10 µM and 23.7 ×10⁻⁶ cm/s.
In the case of `CCC[C@@H](CO)Nc1nc(N)nc(C)c1Cc1ccc(N2CCN(C)CC2=O)cc1OC` [Example 4, (S)-1-(4-{[2-Amino-4-(1-hydroxypentan-2-ylamino)-6-methylpyrimidin-5-yl]methyl}-3-methoxyphenyl)-4-methylpiperazin-2-one], the IC50 in series [1] is > 10 µM. Moreover, the Papp at 4 h, 50 µM in series [2] amounted to 1.3 ×10⁻⁶ cm/s.
Regarding `CCC[C@@H](CCO)Nc1nc(N)nc(C)c1Cc1ccc(N2CCNCC2=O)cc1OC` [Example 5, (S)-1-(4-{[2-Amino-4-(1-hydroxyhexan-3-ylamino)-6-methylpyrimidin-5-yl]methyl}-3-methoxyphenyl)piperazin-2-one], the IC50 in series [1] is > 10 µM. Moreover, the Papp at 4 h, 50 µM in series [2] was < 0.1 ×10⁻⁶ cm/s.
